# Patent publication US20090258045A1, “[…] ANTIMICROBIAL PEPTIDES” (Massachusetts Institute of Technology, priority 2008, published 2009)
# Experiments:
# [1] = tested on: S. aureus; assay: Staphyloccocus aureus macrodilution assay; type: cell-based, Staphylococcus aureus
# Experimental: Staphyloccocus aureus macrodilution assays. All liquid assays were performed in cation-adjusted Mueller Hinton Broth II (CMHB). Qualitative assays were performed following standard macrodilution methods as outlined by the National Committee on Clinical Laboratory Standards (Standards, N. C. f. C. L. Journal, 1999, Approved standard M26-A) with a challenge of 10^5 CFU/mL. For assays involving co-incubation with films deposited on silicon, 24-well plates were used, with 0.5 mL of liquid culture per well. Briefly, each square-cut silicon substrate (1.0 cm×1.0 cm), either bare or coated depending on the test group, was placed flat in the center of a well in a 24-well plate, polished side up. Each well was then filled with 0.50 mL of S. aureus in exponential growth phase at 10^5 CFU/mL in CMHB, completely immersing the substrate. Quantitative assays were done in 96-well plates with 150 μL of liquid culture per well, with 135 μL of test media and 15 μL of inoculation culture at 10^6 CFU/mL in CMHB. All test media were sterile-filtered through 0.2 μm membranes prior to use. […] Cell density was read at OD 600 nm in a BioTek® PowerWave™ XS Microplate Spectrophotometer with accompanying Gen5 program Version 1.00.14. […]
# Antimicrobial activity of Ponericin as released from LbL assemblies. In vitro activity of Ponericin, both in dipping solution and as released from films, were assessed against S. aureus. […]
# [2] = tested on: S. aureus; conditions: free Ponericin; cited from earlier work
substance,measurement,setting,value
Ponericin G1,concentration needed to inhibit S. aureus proliferation,[1]; dipping solution: free Ponericin in 0.1M sodium acetate (FIG. 7A),11 to 22 µg/mL
same,concentration needed to inhibit S. aureus proliferation,[1]; film-released: elution buffer of [(Poly 1/HA)(Pon/HA)]100 (FIG. 7B),11 to 22 µg/mL
same,reported MIC,[2],4 to 8 µg/mL
